Test results published in US20040081624A1, “Liquid aerosol formulations and aerosol generating devices and methods for generating aerosols” (Chrysalis Technologies Incorporated, priority 2002, published 2004).

Columns and labels:
Format in all cases: physicochemical
[1] = Aerosol particle size distribution by cascade impactor (MOUDI) of aerosol from heated capillary passage; settings: carrier 20 volume % ethanol in water
[2] = Visual inspection of deposited aerosol particles (cascade impactor plates); settings: carrier containing varying percentages of ethanol in water
Excerpt: The average MMAD of the aerosol particles was 0.66 microns.
Albuterol aerosol particles produced using a carrier containing varying percentages of ethanol in water as described above were visually analyzed and determined to be dry aerosols.

[3] = Observation of breakdown products / degradation during aerosol generation; settings: carrier including ethanol; summary of tests
Excerpt: Clogging of the capillary size passage of the aerosol generating device was not observed during these tests.

average MMAD of the albuterol aerosol particles [1]	nature of aerosol by visual analysis [2]	degradation [3]	Compound
about 3 microns	dry aerosols	–	CC(C)(C)NCC(O)c1ccc(O)c(CO)c1 (stereo not drawn) [albuterol]
–	–	no observable degradation	CCCC1O[C@@H]2C[C@H]3[C@@H]4CCC5=CC(=O)C=C[C@]5(C)[C@H]4[C@@H](O)C[C@]3(C)[C@]2(C(=O)CO)O1 (stereo partly drawn) [budesonide]
